Measured values reported in US20260234140A1, “PYRIDOPYRIMIDINE DERIVATIVE AND USE THEREOF” (SUNSHINE LAKE PHARMA CO., LTD., priority 2023, published 2026).

Columns and labels:
PD1/PD-L1 pathway = assay: PD1/PD-L1 Blockade Bioassay, inhibition of the PD1/PD-L1 pathway at the cellular level (luciferase reporter, PD-1 Jukat T cells co-cultured with PD-L1 aAPC/CHO-K1 cells); assay type: cell-based; conditions: T-cell; for EC50: PD-1 Jukat T cells + PD-L1 aAPC/CHO-K1 cells, 6 h co-culture, ONE-Glo luciferase readout; for Emax: maximum % Activity relative to atezolizumab (set to 100%)
Procedure: Experiment 1: Detecting the Inhibitory Activity of Compounds on the PD1/PD-L1 Pathway at the Cellular Level Using the PD1/PD-L1 Blockade Bioassay Method
PD-1 Jukat T cells were revived and cultured with 1640 medium containing 100 μg/mL Hygromycin B, […] Puromycin, 10% FBS and 1% dual antibody; PD-L1 aAPC/CHO-K1 cells were revived and cultured with F12K medium containing 100 μg/mL Hygromycin B, 200 μg/mL G418, 10% FBS and 1% dual antibody.
The revived cells need to be passaged 2-3 times. When the cells enter the exponential growth phase with good growth status, the PD-L1 aAPC/CHO-K1 was digested with trypsin, and the cells were resuspended in F12K containing 5% FBS and adjusted to a density of 5×10^5 cells/mL. 20 μl/well were plated in a 384-well plate (10,000 cells/well) and incubated in an incubator overnight for 16-20 h.
a Preparation of compound stock solution: Dissolve the compound to be tested in DMSO to prepare a 20 mM stock solution.
b Compound gradient dilution: dilute the compound in 1640 medium containing 5% FBS without antibiotics or phenol red, and make 3-fold gradient dilutions to prepare 10 concentration gradients (2×).
c Adding drugs: Take out the cell culture plate, discard the supernatant, add 20 μl/well of the prepared compound, and incubate in the incubator for 1.5 h.
PD-1 Jukat T cells were collected, washed once with PBS, and resuspended in 1640 medium containing 5% FBS without antibiotics or phenol red. The density was adjusted to 1×10^6 cells/mL. 20 μl PD-1 Jukat T cells (20,000 cells/well) were added to each well and incubated in the incubator for 6 h.
ONE-Glo™ Luciferase Assay reagent was thawed to room temperature in advance and then added to a 384-well plate at 40 µl/well. Incubate in the dark for 15 minutes and read the […] signal on a plate reader.
[formula] • Among them, % Activity: % Activity • RLU: Resulting Luminescence unit • RLUvehicle: Average RLU value of negative control wells on each plate • RLUpositive: Average RLU value of positive control wells on each plate • Vehicle control: DMSO (0.1%) corresponding to the test value was used as negative control (its % Activity was 0%); • Positive control: The highest detection value at the atezolizumab administration concentration was used as the positive control (its % Activity was 100%). • (2) EC50 value calculation method: The EC50 value was obtained by the nonlinear fitting formula of Graph Pad Prism 8.0 software. The calculation formula is as follows:
Y=Bottom+(Top−Bottom)/(1+10^((Log EC50−X)×HillSlope)) • X: log of activator concentration (logarithm of compound concentration); Y: % Activity • (3) Emax definition: The maximum % Activity value corresponding to the maximum activation value of the compound relative to atezolizumab (the activation value is set to 100%).

[1] = Pharmacokinetics experiment in SD rats; assay type: in vivo; conditions: male SD rats; for AUC(0-t) / Cmax / half-life / clearance / Vd: rat, plasma; for Vd: read-out: Vss
Procedure: Experiment 2: Pharmacokinetics Experiment
1) Preparation of the compound solutions of Example 1 and Example 17: The test compound was prepared into a solution using 10% dimethyl sulfoxide, 10% Kolliphor HS15 and 80% physiological saline; Preparation of the compound solution of Example 11: The compound to be tested is prepared into a solution with 5% dimethyl sulfoxide, 5% Kolliphor HS15 and 90% saline for oral administration or intravenous injection.
2) Male SD rats weighing 250-345 g were randomly divided into two groups. One group was intravenously injected with the test compound at a dose of 1.0 mg/kg, and the other group was orally administered with the test compound at a dose of 5.0 mg/kg. Blood was collected at 0.083, 0.25, 0.5, 1, 2, 5, 7 and 24 hours after administration.
3) A standard curve of an appropriate range was established according to the sample concentration, and the concentration of the test compound in the plasma sample was determined in the MRM mode using an AB SCIEX Q TRAP 4000 LC-MS/MS. The pharmacokinetic parameters were calculated using the non-compartmental model method using WinNonLin 6.3 software.

Structure (SMILES)	EC50 (PD1/PD-L1 pathway) [nM]	F ([1]; ig (oral), 5 mg/kg) [%]	AUC(0-t) ([1]; ig (oral), 5 mg/kg) [ng·h/mL]	Cmax ([1]; ig (oral), 5 mg/kg) [ng/mL]	half-life ([1]; ig (oral), 5 mg/kg) [h]	AUC(0-t) ([1]; iv, 1 mg/kg) [ng·h/mL]	Cmax ([1]; iv, 1 mg/kg) [ng/mL]	clearance ([1]; iv, 1 mg/kg) [mL/min/kg]	half-life ([1]; iv, 1 mg/kg) [h]	Vd ([1]; iv, 1 mg/kg) [L/kg]	Emax (PD1/PD-L1 pathway) [%]
[2H]C([2H])([2H])N(Cc1ncc(-c2cccc(-c3cccc(Nc4nc(C(F)F)nc5cc(CN6CC[C@@H](O)C6)cnc45)c3C)c2Cl)cc1OC)C[C@H]1CC[C@H](C(=O)O)CC1 [Example 38, (1r,4r)-4-((((5-(2-chloro-3′-((2-(difluoromethyl)-7-(((R)-3-hydroxypyrrolidin-1-yl)methyl)pyrido[3,2-d]pyrimidin-4-yl)amino)-2′-methyl-[1,1′-biphenyl]-3-yl)-3-methoxypyridin-2-yl)methyl)(methyl-d3)amino)methyl)cyclohexane-1-carboxylic acid]		57.8	25900	1850	6.1	8890	621	1.7	6.6	0.91	
COc1nc(-c2cccc(-c3cccc(Nc4nc(C(F)F)nc5cc(CN6CC[C@@H](O)C6)cnc45)c3C)c2Cl)ccc1CN1CCC(C(=O)O)CC1 [Example 40, (R)-1-((6-(2-chloro-3′-((2-(difluoromethyl)-7-((3-hydroxypyrrolidin-1-yl)methyl)pyrido[3,2-d]pyrimidin-4-yl)amino)-2′-methyl-[1,1′-biphenyl]-3-yl)-2-methoxypyridin-3-yl)methyl)piperidine-4-carboxylic acid]	57.7	23	15100	1260	4.1	12900	1870	1.3	4.5	0.43	121
COc1nc(-c2cccc(-c3cccc(Nc4nc(C(F)F)nc5cc(CN6CC[C@@H](O)C6)cnc45)c3C)c2Cl)ccc1CN(C)C[C@H]1CC[C@H](C(=O)O)CC1 [Example 17, (1r,4r)-4-((((6-(2-chloro-3′-((2-(difluoromethyl)-7-(((R)-3-hydroxypyrrolidin-1-yl)methyl)pyrido[3,2-d]pyrimidin-4-yl)amino)-2′-methyl-[1,1′-biphenyl]-3-yl)-2-methoxypyridin-3-yl)methyl)(methyl)amino)methyl)cyclohexane-1-carboxylic acid]	109	55	27000	1980		9760	675	1.6	7.5	0.95	94.1

The remaining molecules from weak to strong by EC50 (PD1/PD-L1 pathway), led by results:

EC50 (PD1/PD-L1 pathway) [nM]	F ([1]; ig (oral), 5 mg/kg) [%]	AUC(0-t) ([1]; ig (oral), 5 mg/kg) [ng·h/mL]	Cmax ([1]; ig (oral), 5 mg/kg) [ng/mL]	half-life ([1]; ig (oral), 5 mg/kg) [h]	AUC(0-t) ([1]; iv, 1 mg/kg) [ng·h/mL]	Cmax ([1]; iv, 1 mg/kg) [ng/mL]	clearance ([1]; iv, 1 mg/kg) [mL/min/kg]	half-life ([1]; iv, 1 mg/kg) [h]	Vd ([1]; iv, 1 mg/kg) [L/kg]	Structure (SMILES)	Emax (PD1/PD-L1 pathway) [%]
44	32	12300	935	4.9	7710	877	2.1	5.4	0.82	COc1nc(-c2cccc(-c3cccc(Nc4nc(C(F)F)nc5cc(CN6CC[C@@H](O)C6)cnc45)c3C)c2Cl)ccc1CN(C)[C@H]1CC[C@H](C(=O)O)CC1 [Example 1, (1r,4r)-4-(((6-(2-chloro-3′-((2-(difluoromethyl)-7-(((R)-3-hydroxypyrrolidin-1-yl)methyl)pyrido[3,2-d]pyrimidin-4-yl)amino)-2′-methyl-[1,1′-biphenyl]-3-yl)-2-methoxypyridin-3-yl)methyl)(methyl)amino)cyclohexane-1-carboxylic acid]	98.2
20.4	52.9	16700	1630	4.3	6370	1100	2.6	3.9	0.75	COc1nc(-c2cccc(-c3cccc(Nc4nc(C(F)F)nc5cc(CN6CC[C@@H](O)C6)cnc45)c3C)c2Cl)cnc1CN(C)[C@H]1CC[C@H](C(=O)O)CC1 [Example 11, (1r,4r)-4-(((5-(2-chloro-3′-((2-(difluoromethyl)-7-(((R)-3-hydroxypyrrolidin-1-yl)methyl)pyrido[3,2-d]pyrimidin-4-yl)amino)-2′-methyl-[1,1′-biphenyl]-3-yl)-3-methoxypyrazin-2-yl)methyl)(methyl)amino)cyclohexane-1-carboxylic acid]	98.5
